Assay results as given in PubChem BioAssay AID2060626 (Molecular Pharmacology Branch, DTP, NCI, 2025).
“And” between values parts separate entries of the source, which are not always exact repeats. Equal entries are not always repeated.

Tested on: 168753-222-R-J1-PDC complex spheroid viability
Test: Anticancer human tumor 168753-222-R-J1-PDC patient-derived bladder carcinoma cell line growth inhibition [CLK]
Conditions: for viability, T/C: stronger effect = lower value
Outline: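 Patient-derived tumor cells grown as complex spheroids with HUVEC endothelial cells and mesenchymal stem cells, treated with drug combinations. Concentrations descend in half-log steps from near clinical Cmax, or from 10 microM if Cmax unknown.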

[1] = curve of first compound, second compound 0.0316 µM
[2] = curve of first compound, second compound 0.1 µM
[3] = curve of first compound, second compound 0.316 µM
[4] = curve of first compound, second compound 1 µM
[5] = curve of first compound, second compound 3.16 µM
[6] = curve of first compound, second compound 10 µM
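Further: viability measured after seven days of drug exposure.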
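Wherever viability, T/C is given: luminescence signal used as surrogate for viable cell amount; 100% = DMSO vehicle control wells.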

## CC(C)CC(NC(=O)C(Cc1ccccc1)NC(=O)c1cnccn1)B(O)O (stereo unspecified) + CN1CCN(c2cc(C(=O)Nc3cc4cc(-c5cnn(C)c5)ccc4cn3)ccn2)CC1
[1]
  IC50: 2.02 nM
[2]
  IC50: 1.26 nM
[3]
  IC50: < 0.949 nM
[4]
  IC50: < 0.949 nM
[5]
  IC50: < 0.949 nM
[6]
  IC50: < 0.949 nM
Second compound 0.0316 µM, first compound 0.000949 µM
  viability, T/C: 110%
Second compound 0.0316 µM, first compound 0.003 µM
  viability, T/C: 18.9%
Second compound 0.0316 µM, first compound 0.00949 µM
  viability, T/C: 0.44%
Second compound 0.0316 µM, first compound 0.03 µM
  viability, T/C: 0.32%
Second compound 0.0316 µM, first compound 0.0949 µM
  viability, T/C: 0.25%
Second compound 0.0316 µM, first compound 0.3 µM
  viability, T/C: 1.03%
Second compound 0.1 µM, first compound 0.000949 µM
  viability, T/C: 59.4%
Second compound 0.1 µM, first compound 0.003 µM
  viability, T/C: 20.9%
Second compound 0.1 µM, first compound 0.00949 µM
  viability, T/C: 0.36%
Second compound 0.1 µM, first compound 0.03 µM
  viability, T/C: 0.27%
Second compound 0.1 µM, first compound 0.0949 µM
  viability, T/C: 0.22%
Second compound 0.1 µM, first compound 0.3 µM
  viability, T/C: 0.23%
Second compound 0.316 µM, first compound 0.000949 µM
  viability, T/C: 11.4%
Second compound 0.316 µM, first compound 0.003 µM
  viability, T/C: 11.6%
Second compound 0.316 µM, first compound 0.00949 µM
  viability, T/C: 0.29%
Second compound 0.316 µM, first compound 0.03 µM
  viability, T/C: 0.17%
Second compound 0.316 µM, first compound 0.0949 µM
  viability, T/C: 0.2%
Second compound 0.316 µM, first compound 0.3 µM
  viability, T/C: 0.16%
Second compound 1 µM, first compound 0.000949 µM
  viability, T/C: 0.26%
Second compound 1 µM, first compound 0.003 µM
  viability, T/C: 0.22%
Second compound 1 µM, first compound 0.00949 µM
  viability, T/C: 0.57%
Second compound 1 µM, first compound 0.03 µM
  viability, T/C: 0.12%
Second compound 1 µM, first compound 0.0949 µM
  viability, T/C: 0.15%
Second compound 1 µM, first compound 0.3 µM
  viability, T/C: 0.15%
Second compound 3.16 µM, first compound 0.000949 µM
  viability, T/C: 1.04%
Second compound 3.16 µM, first compound 0.003 µM
  viability, T/C: 0.22%
Second compound 3.16 µM, first compound 0.00949 µM
  viability, T/C: 0.34%
Second compound 3.16 µM, first compound 0.03 µM
  viability, T/C: 0.09%
Second compound 3.16 µM, first compound 0.0949 µM
  viability, T/C: 1.55%
Second compound 3.16 µM, first compound 0.3 µM
  viability, T/C: 0.25%
Second compound 10 µM, first compound 0.000949 µM
  viability, T/C: 0.63%
Second compound 10 µM, first compound 0.003 µM
  viability, T/C: 0.26%
Second compound 10 µM, first compound 0.00949 µM
  viability, T/C: 0.23%
Second compound 10 µM, first compound 0.03 µM
  viability, T/C: 0.18%
Second compound 10 µM, first compound 0.0949 µM
  viability, T/C: 1.16%
Second compound 10 µM, first compound 0.3 µM
  viability, T/C: 1.04%

## O=C(c1cc(Cc2n[nH]c(=O)c3ccccc23)ccc1F)N1CCN(C(=O)C2CC2)CC1
Compound 0.0316 µM
  viability, T/C: 76.1% and 102%
Compound 0.1 µM
  viability, T/C: 97.4% and 102%
Compound 0.316 µM
  viability, T/C: 93.7% and 95.2%
Compound 1 µM
  viability, T/C: 62% and 95.9%
Compound 3.16 µM
  viability, T/C: 46.3% and 107%
Compound 10 µM
  viability, T/C: 70.3% and 93.2%
Curve of compound
  IC50: > 10000 nM

## CCc1c2c(nc3ccc(O)cc13)-c1cc3c(c(=O)n1C2)COC(=O)[C@]3(O)CC + CNC(=O)c1ccc(Nc2nc(OC3CCCC3)c3c(-c4ccc5nc(C)oc5c4)c[nH]c3n2)c(OC)c1
[1]
  IC50: 118 nM
[2]
  IC50: 201 nM
[3]
  IC50: 51.8 nM
[4]
  IC50: < 3.16 nM
[5]
  IC50: < 3.16 nM
[6]
  IC50: < 3.16 nM
Second compound 0.0316 µM, first compound 0.00316 µM
  viability, T/C: 109%
Second compound 0.0316 µM, first compound 0.01 µM
  viability, T/C: 96.2%
Second compound 0.0316 µM, first compound 0.0316 µM
  viability, T/C: 77.2%
Second compound 0.0316 µM, first compound 0.1 µM
  viability, T/C: 48.9%
Second compound 0.0316 µM, first compound 0.316 µM
  viability, T/C: 35.8%
Second compound 0.0316 µM, first compound 1 µM
  viability, T/C: 14.6%
Second compound 0.1 µM, first compound 0.00316 µM
  viability, T/C: 99.1%
Second compound 0.1 µM, first compound 0.01 µM
  viability, T/C: 87.4%
Second compound 0.1 µM, first compound 0.0316 µM
  viability, T/C: 87.8%
Second compound 0.1 µM, first compound 0.1 µM
  viability, T/C: 50.8%
Second compound 0.1 µM, first compound 0.316 µM
  viability, T/C: 48.8%
Second compound 0.1 µM, first compound 1 µM
  viability, T/C: 12.8%
Second compound 0.316 µM, first compound 0.00316 µM
  viability, T/C: 82.1%
Second compound 0.316 µM, first compound 0.01 µM
  viability, T/C: 88.2%
Second compound 0.316 µM, first compound 0.0316 µM
  viability, T/C: 62.5%
Second compound 0.316 µM, first compound 0.1 µM
  viability, T/C: 30.1%
Second compound 0.316 µM, first compound 0.316 µM
  viability, T/C: 24.6%
Second compound 0.316 µM, first compound 1 µM
  viability, T/C: 8.79%
Second compound 1 µM, first compound 0.00316 µM
  viability, T/C: 35.1%
Second compound 1 µM, first compound 0.01 µM
  viability, T/C: 29.9%
Second compound 1 µM, first compound 0.0316 µM
  viability, T/C: 17.4%
Second compound 1 µM, first compound 0.1 µM
  viability, T/C: 14.1%
Second compound 1 µM, first compound 0.316 µM
  viability, T/C: 14.8%
Second compound 1 µM, first compound 1 µM
  viability, T/C: 11.5%
Second compound 3.16 µM, first compound 0.00316 µM
  viability, T/C: 18.8%
Second compound 3.16 µM, first compound 0.01 µM
  viability, T/C: 18.2%
Second compound 3.16 µM, first compound 0.0316 µM
  viability, T/C: 13%
Second compound 3.16 µM, first compound 0.1 µM
  viability, T/C: 12.1%
Second compound 3.16 µM, first compound 0.316 µM
  viability, T/C: 13.3%
Second compound 3.16 µM, first compound 1 µM
  viability, T/C: 10.3%
Second compound 10 µM, first compound 0.00316 µM
  viability, T/C: 16.9%
Second compound 10 µM, first compound 0.01 µM
  viability, T/C: 15.3%
Second compound 10 µM, first compound 0.0316 µM
  viability, T/C: 16.1%
Second compound 10 µM, first compound 0.1 µM
  viability, T/C: 12.6%
Second compound 10 µM, first compound 0.316 µM
  viability, T/C: 13.1%
Second compound 10 µM, first compound 1 µM
  viability, T/C: 7.91%
